Test results from ChEMBL document CHEMBL1131315, “Synthesis and anticonvulsant activity of 2(3H)-benzoxazolone and 2(3H)-benzothiazolone derivatives” (J Med Chem, 1998).
“And” between values parts separate entries of the source, which are not always exact repeats. Identical values can stand only once. The source made the active and inactive calls. The rule behind the calls is not given here.

Experiments:
Mus musculus [1] = test: The compound was tested for anticonvulsant activity in subcutaneous pentylenetetrazole seizure test (sc Met) for 30 min in mice; active at 100 mg/kg; assay type: functional, organism-based; parameters: dose 100 mg/kg
Mus musculus [2] = test: (§1) The compound was tested for neurologic toxicity (rotarod) test for 30 min in mice; active at 100 mg/kg; assay type: functional, organism-based; parameters: dose 100 mg/kg
Mus musculus [3] = test: Anticonvulsant activity in Maximal electroshock seizure test at 100 mg/kg i.p. in mice.; assay type: functional, organism-based; parameters: dose 100 mg/kg
Mus musculus [4] = test: The compound was tested for anticonvulsant activity in Maximal electroshock seizure test (MES) for 4 hr in mice(ip); active at 300 mg/kg; assay type: functional, organism-based; parameters: dose 300 mg/kg
Mus musculus [5] = test: (§2) The compound was tested for neurologic toxicity (rotarod) test for 4 hours in mice; active at 300 mg/kg; assay type: functional, organism-based; parameters: dose 300 mg/kg
Mus musculus [6] = test: The compound was tested for anticonvulsant activity in subcutaneous pentylenetetrazole seizure test (sc Met) for 4 hr in mice; active at 300 mg/kg; assay type: functional, organism-based; parameters: dose 300 mg/kg
Mus musculus [7] = test: The compound was tested for anticonvulsant activity in Maximal electroshock seizure test for 30 min in mice(ip); active at 300 mg/kg; assay type: functional, organism-based; parameters: dose 300 mg/kg
Mus musculus [8] = test: The compound was tested for anticonvulsant activity in Maximal electroshock seizure test (MES) for 4 hr in mice(ip); no activity or toxicity at 300 mg/kg; assay type: functional, organism-based; parameters: dose 300 mg/kg
Mus musculus [9] = test: Anticonvulsant activity in subcutaneous pentylenetetrazole seizure test for 30 min in mice; No activity/toxicity at 300 mg/kg.; assay type: functional, organism-based; parameters: dose 300 mg/kg
[10] = The compound was tested for neurologic toxicity (rotarod) test for 4 hours in mice; no activity or no toxicity at 300 mg/kg; assay type: organism-based; parameters: dose 300 mg/kg; conditions: mouse, in vivo
[11] = The compound was tested for neurologic toxicity (rotarod) test for 30 min in mice; no activity or no toxicity at 300 mg/kg; assay type: organism-based; parameters: dose 300 mg/kg; conditions: mouse, in vivo, 0.5 h
Mus musculus [12] = test: The anticonvulsant activity in subcutaneous pentylenetetrazole seizure test (sc Met) for 4 hr in mice; no activity or no toxicity at 300 mg/kg; assay type: functional, organism-based; parameters: dose 300 mg/kg
[13] = The compound was tested for time of peak effect (TPE) in hours for its toxicity in mice on ip administration.; assay type: organism-based; conditions: mouse, in vivo
Rattus norvegicus [14] = test: The compound was tested for the effective oral dose to inhibit 50% of the anticonvulsant in rats.; assay type: functional
Rattus norvegicus [15] = species on record: Rattus norvegicus; test: Protective index value is the ratio between ED50 and TD50; assay type: functional
Mus musculus [16] = test: Time of peak effect in mice following i.p. administration.; assay type: functional
Mus musculus [17] = test: The compound was tested for anticonvulsant activity in subcutaneous pentylenetetrazole seizure test (sc Met) for 30 min in mice; active at 300 mg/kg; assay type: functional, organism-based; parameters: dose 300 mg/kg
[18] = as §2; assay type: organism-based; parameters: dose 300 mg/kg; conditions: mouse, in vivo
[19] = as §1; assay type: organism-based; parameters: dose 100 mg/kg; conditions: mouse, in vivo, 0.5 h
[20] = The compound was determined for the dose (mg/kg) by rotarod test at the time of peak neurotoxic effect in mice on ip administration.; assay type: ADME, organism-based; conditions: mouse, in vivo
Mus musculus [21] = test: The compound was tested for anticonvulsant activity in Maximal electroshock seizure test (MES) for 4 hr in mice(ip); active at 100 mg/kg; assay type: functional, organism-based; parameters: dose 100 mg/kg
Mus musculus [22] = test: Inhibition of s.c. pentylenetetrazole induced seizure in mice following i.p. administration.; assay type: functional
Mus musculus [23] = species on record: Mus musculus; test: Protective index value is the ratio between TD50 and ED50 values.; assay type: functional
Mus musculus [24] = test: The compound was tested to inhibit 50% of induced maximal electroshock seizure in mice on ip administration; assay type: functional
Rattus norvegicus [25] = test: The compound was tested for the toxic dose on oral administration.; assay type: functional
Mus musculus [26] = test: The compound was tested to inhibit 50% of induced maximal electroshock seizure in mice on ip administration.; assay type: functional
Rattus norvegicus [27] = test: The compound was tested for the effective oral dose to inhibit 50% of the anticonvulsant in rats; assay type: functional
[28] = The compound was tested for neurologic toxicity (rotarod) test for 4 hours in mice; active at 30 mg/kg; assay type: organism-based; parameters: dose 30 mg/kg; conditions: mouse, in vivo
[29] = The compound was tested for neurologic toxicity (rotarod) test for 30 min in mice; active at 30 mg/kg; assay type: organism-based; parameters: dose 30 mg/kg; conditions: mouse, in vivo, 0.5 h

Row | SMILES | scMet (Mus musculus [1]) | MES (Mus musculus [3]) | scMet (Mus musculus [6]) | MES (Mus musculus [8]) | scMet (Mus musculus [9]) | scMet (Mus musculus [12]) | Toxicity [13] | PI (Rattus norvegicus [15]) | Activity (Mus musculus [16]) | Rotarod toxicity [18] | Rotarod toxicity [19] | TD50 [20] | MES (Mus musculus [21]) | ED50 (Mus musculus [22]) | PI (Mus musculus [23]) | TD50 (Rattus norvegicus [25]) | further results
1 | O=c1[nH]c2ccccc2s1 | active at 100 mg/kg | active at 300 mg/kg | active at 100 mg/kg |  |  |  |  |  |  |  |  |  |  |  |  |  | Rotarod toxicity (Mus musculus [2]): active at 100 mg/kg; MES (Mus musculus [4]): active at 300 mg/kg; Rotarod toxicity (Mus musculus [5]): active at 100 mg/kg
2 | CCC(=O)c1ccc2nc(O)oc2c1 |  |  |  | active at 300 mg/kg | No activity or no toxicity at 300 mg/kg | No activity or no toxicity at 300 mg/kg |  |  |  |  |  |  |  |  |  |  | MES (Mus musculus [7]): active at 300 mg/kg; Rotarod toxicity [10]: No activity or no toxicity at 300 mg/kg; Rotarod toxicity [11]: No activity or no toxicity at 300 mg/kg
3 | CCCCCc1ccc2nc(O)sc2c1 |  | active at 100 mg/kg | active at 300 mg/kg |  |  |  | 0.5 h | 2.4 | 0.25 h | active at 100 mg/kg | active at 100 mg/kg | 137 mg/kg | active at 100 mg/kg | 90.5 mg/kg | 2.3 and 1.5 | > 120 mg/kg | ED50 (Rattus norvegicus [14]): 50.5 mg/kg; scMet (Mus musculus [17]): active at 300 mg/kg; ED50 (Mus musculus [24]): 58.9 mg/kg
4 | Oc1nc2ccc(Cc3ccc(F)cc3)cc2o1 | active at 100 mg/kg | active at 100 mg/kg | active at 100 mg/kg |  |  |  | 1 h | 18.5 | 1 h | active at 100 mg/kg | active at 100 mg/kg | 356 mg/kg | active at 100 mg/kg | 218 mg/kg | 2.8 and 1.6 | > 220 mg/kg | ED50 (Mus musculus [26]): 125 mg/kg; ED50 (Rattus norvegicus [27]): 11.9 mg/kg
5 | CCC(=O)c1ccc2c(c1)oc(=O)n2CCCN1CCCCC1 |  | No activity or toxicity at 300 mg/kg |  | No activity or toxicity at 300 mg/kg | No activity or no toxicity at 300 mg/kg | No activity or no toxicity at 300 mg/kg |  |  |  |  |  |  |  |  |  |  | Rotarod toxicity [28]: active at 30 mg/kg; Rotarod toxicity [29]: active at 30 mg/kg
